Like-named read-outs stand apart in the source and are kept apart here.
Key:
Format in all cases: cell-based
[1] = molecular target: T1, mGluR7 (Homo sapiens, UniProt Q14831); test: Kinetic impedance assay (desensitization) in stable CHO-mGluR7 cells, response to tool activator CPD A after pre-treatment; settings: FIG. 1B
Protocol: Stable CHO-mGluR7 cells (DiscoverX) were pre-incubated with compounds (EC80, 1 h), washed and after 30 min, impedance changes upon addition of a tool mGluR7 activator (CPD A) were determined (Cellkey, Molecular Devices).

[2] = molecular target: T2, mouse mGluR7 (Mus musculus, UniProt Q68ED2); test: cAMP reporter gene assay in CHO-CRE-luc cells stably expressing mouse mGluR7
T2 construct: expressed in transfected cells
Protocol: (§1) Compound activities were determined in CHO-CRE-luc cells stably expressing hu/mo mGluR7, using a cAMP reporter gene assay (Steady Glo, Promega). Selectivity was assessed in stable CHO-mGluR4 cells (DiscoverX) and CHO-mGluR8 transients using an HTRF cAMP assay (Cisbio).
(§2) The activation of mGluR7 was measured by the decreased forskolin stimulated luminescence signal. […] Forskolin stimulated luminescence signal was not reduced for mGluR4 and mGluR8.

[3] = molecular target: T1, mGluR7; test: Mode of action: cAMP assay in CHO-CRE-luc human mGluR7 cells in presence of orthosteric antagonist LY341495; set-up: expressed in transfected cells; settings: FIG. 2C, 2D
Protocol: FIGS. 2A-2D are graphs of the results from in vitro cAMP assays in CHO-CRE-luc cells stably expressing human mGluR7 to determine the mode of action of CPD1. FIG. 2A provides the compound activity of non-selective agonist, L-AP4, with increasing concentrations of orthosteric antagonist, LY341495 (LY). FIG. 2B provides the compound activity of a positive allosteric modulator (PAM) compound, VU0422288, for the same concentrations of LY as shown in FIG. 2A.
as §1
The mode of action of the compound in Example 16 was determined by testing activity in the presence of the orthosteric antagonist LY341495 (LY).

[4] = molecular target: mGluR4 (Homo sapiens, UniProt Q14833); test: Selectivity HTRF cAMP assay in stable CHO-mGluR4 cells
Protocol: as §1, §2

[5] = system: CA1 pyramidal cells in mouse hippocampal slices (SC-CA1 pathway); test: Electrophysiology: intracellular EPSC recordings from CA1 pyramidal cells in mouse hippocampal slices
Protocol: FIG. 3A is a graph showing the results of a glutamate release assay for CPD1 in mouse synaptosomes. FIG. 3B is a graph showing the results of a glutamate release potentiation assay. FIG. 3C and FIG. 3D provide graphs of electrophysiological recordings from the SC-CA1 pathway in mouse hippocampal slices. FIG. 3C is a graph comparing the changes in intracellular recordings of excitatory postsynaptic currents (EPSCs) as a result of contact with L-AP4 at a concentration of 0.5 mM, CPD 1 at a concentration of 1 μM, and CPD 1 at a concentration of 5 μM. FIG. 3D is a graph comparing the changes in intracellular recordings of EPSCs in mice with wild-type (WT) mGluR7 and mice with an mGluR7 knock-out contacted with CPD 1 at a concentration of 5 μM.
Intracellular recordings were made from CA1 pyramidal cells following SC stimulation in mouse hippocampal slices. Compounds were applied to the slices for 10 min, with recordings made over a 45 minutes period. mGluR7 KO mice were obtained from the Toronto Centre for Phenogenomics.

[6] = molecular target: T1, mGluR7; test: cAMP CRE-luciferase reporter gene assay (Steady Glo) in CHO-CRE-luc cells stably expressing human mGluR7; set-up: expressed in transfected cells
Protocol: as §1
The ability of the test compounds to activate mGluR7 was determined by their ability to reduce forskolin stimulated cAMP production. Compounds were assessed in a CRE-directed luciferase reporter gene assay, using a stable CHO cell line expressing the CRE-luc reporter and human mGluR7 genes. In this cell line, production of cAMP stimulated the transcription of the luciferase gene and luciferase activity was then measured in a luminescent enzyme assay (Steady Glo assay; Promega E2550). Activation of mGluR7 decreased the forskolin stimulated luminescence signal.
The day prior to the assay, compounds were serially diluted in DMSO (100× final assay concentration (FAC)), in 384-well plates which were then stored in the dark at room temperature (RT) until use. Cells were seeded at 12.5 k/well in white, clear bottom 384-well plates (Corning 3707) and left for one hour at RT followed by an overnight incubation (37° C.). The following day, the DMSO compound plate was diluted 1:20 (5×FAC) in Opti-MEM I (Life Technologies 11058021). The growth media was removed from the cell plate and replaced with 15 μl Opti-MEM I, followed by a 5 μl addition from the 5× compound plate and a fifteen minute incubation (37° C.). Forskolin (Sigma F3917) was then added to the wells (5 μl of 2.5 μM) and the plate was incubated for five hours (37° C.). During this incubation, the Steady Glo Substrate reagent was warmed to 37° C. Aliquots (11 ml; stored at −20° C.) of this reagent were prepared by dissolving the contents of 1 vial of lyophilised substrate in 100 ml Steady-Glo buffer. A 25 μl addition of the substrate was made to all wells and the plate was incubated for thirty minutes at RT, on a plate shaker (300 rpm; in the dark). Luminescence was then measured using the EnVision Multilabel Reader (Perkin Elmer).
Compound activity was examined using a 10-point, half log concentration-response range and each concentration was tested in duplicate wells. Luminescence values were normalised to ‘maximum’ (forskolin alone) and ‘minimum’ (forskolin in the presence of tool mGluR7 agonist) controls.

[7] = molecular target: T3, mGluR8 (Homo sapiens, UniProt O00222); test: Selectivity HTRF cAMP assay in CHO-mGluR8 transients
T3 construct: expressed in transfected cells; host or cells: CHO (transient transfection)
Protocol: as §1, §2

[8] = system: mouse cortical synaptosomes; test: Glutamate release assay in mouse cortical synaptosomes
Protocol: Stimulus induced glutamate release from mouse cortical synaptosomes was monitored using a fluorescence based glutamate dehydrogenase assay. Compounds were incubated for 1 or 10 min for the inhibition or potentiation modes respectively.

T1 sequence (Q14831 35-915): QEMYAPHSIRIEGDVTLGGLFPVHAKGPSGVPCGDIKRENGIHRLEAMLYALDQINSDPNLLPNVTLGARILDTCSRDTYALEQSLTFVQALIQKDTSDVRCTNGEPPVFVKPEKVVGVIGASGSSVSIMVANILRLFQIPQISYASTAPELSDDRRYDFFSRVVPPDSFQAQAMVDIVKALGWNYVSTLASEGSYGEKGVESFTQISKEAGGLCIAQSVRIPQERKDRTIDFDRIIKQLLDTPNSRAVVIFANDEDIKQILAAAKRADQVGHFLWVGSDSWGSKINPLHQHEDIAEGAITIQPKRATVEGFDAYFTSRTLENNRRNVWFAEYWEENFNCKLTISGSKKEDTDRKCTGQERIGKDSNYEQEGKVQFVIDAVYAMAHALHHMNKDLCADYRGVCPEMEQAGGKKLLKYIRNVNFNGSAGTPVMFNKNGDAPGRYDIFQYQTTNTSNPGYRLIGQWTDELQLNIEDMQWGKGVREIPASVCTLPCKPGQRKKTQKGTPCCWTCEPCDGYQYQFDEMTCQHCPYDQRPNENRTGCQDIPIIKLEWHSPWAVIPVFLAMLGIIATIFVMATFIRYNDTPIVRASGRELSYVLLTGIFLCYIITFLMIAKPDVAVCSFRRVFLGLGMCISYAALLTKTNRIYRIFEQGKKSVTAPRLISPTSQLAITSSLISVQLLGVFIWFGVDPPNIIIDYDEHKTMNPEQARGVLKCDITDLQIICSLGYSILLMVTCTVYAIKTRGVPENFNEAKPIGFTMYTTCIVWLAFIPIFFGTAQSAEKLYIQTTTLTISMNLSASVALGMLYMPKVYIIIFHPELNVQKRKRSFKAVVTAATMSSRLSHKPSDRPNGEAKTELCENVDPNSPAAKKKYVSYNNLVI
mGluR4, sequence (Q14833 33-912): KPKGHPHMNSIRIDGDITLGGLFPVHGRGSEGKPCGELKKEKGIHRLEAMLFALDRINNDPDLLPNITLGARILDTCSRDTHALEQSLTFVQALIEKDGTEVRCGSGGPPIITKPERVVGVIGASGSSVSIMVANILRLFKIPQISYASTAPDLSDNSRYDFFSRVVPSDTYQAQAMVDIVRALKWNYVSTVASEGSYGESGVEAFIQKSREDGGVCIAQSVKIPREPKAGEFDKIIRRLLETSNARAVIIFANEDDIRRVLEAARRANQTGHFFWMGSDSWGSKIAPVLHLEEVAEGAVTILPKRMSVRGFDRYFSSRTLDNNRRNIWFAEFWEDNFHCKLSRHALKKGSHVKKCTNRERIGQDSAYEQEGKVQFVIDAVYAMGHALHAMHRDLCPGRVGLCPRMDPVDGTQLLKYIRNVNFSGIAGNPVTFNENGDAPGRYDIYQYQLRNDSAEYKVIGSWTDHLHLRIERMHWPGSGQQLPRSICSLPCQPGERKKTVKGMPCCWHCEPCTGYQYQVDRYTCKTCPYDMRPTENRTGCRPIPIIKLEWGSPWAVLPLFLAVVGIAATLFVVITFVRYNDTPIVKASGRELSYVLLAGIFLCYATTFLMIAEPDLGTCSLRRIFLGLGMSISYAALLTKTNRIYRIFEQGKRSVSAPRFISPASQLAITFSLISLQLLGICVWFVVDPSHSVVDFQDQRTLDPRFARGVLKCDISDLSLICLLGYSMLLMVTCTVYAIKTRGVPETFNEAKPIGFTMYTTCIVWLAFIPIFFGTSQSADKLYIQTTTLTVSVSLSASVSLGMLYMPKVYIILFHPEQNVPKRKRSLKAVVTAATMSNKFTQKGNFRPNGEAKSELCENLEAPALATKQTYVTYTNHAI
T2 sequence (Q68ED2 35-915): as the sequence (Q14831 35-915) above, with S454T, A486P, D544N counted along it
T3 sequence (O00222 34-908, species assumed): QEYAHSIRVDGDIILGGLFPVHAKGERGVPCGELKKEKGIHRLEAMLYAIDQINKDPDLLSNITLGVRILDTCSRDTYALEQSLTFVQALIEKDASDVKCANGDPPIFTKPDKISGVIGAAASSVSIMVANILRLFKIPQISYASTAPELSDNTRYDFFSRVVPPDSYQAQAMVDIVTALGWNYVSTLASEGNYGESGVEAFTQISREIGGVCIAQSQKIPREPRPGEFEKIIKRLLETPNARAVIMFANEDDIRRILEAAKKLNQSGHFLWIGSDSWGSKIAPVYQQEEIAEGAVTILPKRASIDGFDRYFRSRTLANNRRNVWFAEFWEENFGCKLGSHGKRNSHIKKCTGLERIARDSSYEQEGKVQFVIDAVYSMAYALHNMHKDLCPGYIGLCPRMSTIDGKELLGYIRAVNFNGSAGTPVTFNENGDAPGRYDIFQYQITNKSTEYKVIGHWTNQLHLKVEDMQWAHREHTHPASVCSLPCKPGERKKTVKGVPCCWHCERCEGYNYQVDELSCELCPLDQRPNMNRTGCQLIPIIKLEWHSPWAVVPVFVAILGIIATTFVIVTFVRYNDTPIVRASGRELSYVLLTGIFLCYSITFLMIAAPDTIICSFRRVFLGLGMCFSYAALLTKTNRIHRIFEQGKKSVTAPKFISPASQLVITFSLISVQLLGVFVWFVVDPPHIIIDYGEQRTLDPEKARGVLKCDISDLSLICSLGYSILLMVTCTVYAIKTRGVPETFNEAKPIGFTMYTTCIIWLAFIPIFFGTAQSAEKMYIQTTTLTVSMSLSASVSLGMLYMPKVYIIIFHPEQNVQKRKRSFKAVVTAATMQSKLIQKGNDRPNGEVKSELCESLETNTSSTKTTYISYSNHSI

**Q.** What does the source list for `Cl.Cl.c1ccc(C(NCCNC(c2ccccc2)c2ccccc2)c2ccccc2)cc1` [AMN082, N,N′-dibenzhydrylethane-1,2-diamine dihydrochloride]?
**A.** EC50 of subsequent response to CPD A increased ([1]; pre-treatment 1 hour (EC80)): 5 fold; Emax ([1]; pre-treatment 1 hour (EC80), read-out: Emax of subsequent response to CPD A reduced by): 75%

**Q.** Which results are given for `C[C@H](C(=O)NC1COc2ccccc2C1S(C)(=O)=O)c1ccc(F)cc1` (single isomer, unassigned) [Example 16]?
**A.** agonist activity at mGluR7, mouse samples (in words) ([2]; FIG. 1A): full agonist; EC50 ([2]; mean ± standard deviation, n=2): 1.8 ± 3.5 nM; Emax mGluR7 (mouse) ([2]; mean ± standard deviation, n=2): 100 ± 0.1 % control; effect of increasing LY341495 concentrations on compound activity (in words) [3]: unaffected; activity at mGluR4 (in words) ([4]; FIG. 1A): no activity; EC50 mGluR4 ([4]; tested ≤10 μM): inactive; Emax mGluR4 ([4]; tested ≤10 μM): inactive; activity on EPSCs in slices from mGluR7 KO mice (in words) ([5]; mGluR7 KO mice, 5 μM, FIG. 3D): inactive; effect on excitatory postsynaptic currents (EPSCs) amplitude (in words) ([5]; wild-type mouse hippocampal slices, FIG. 3C): bimodal effect; effect of pre-treatment on response to CPD A (in words) ([1]; pre-treatment): did not alter; agonist activity at mGluR7, human samples (in words) ([6]; FIG. 1A): full agonist; Emax mGluR7 (human) ([6]; mean ± standard deviation, n=2): 100 ± 1.8 % control; EC50 ([6]; mean ± standard deviation, n=2, read-out: EC50 mGluR7 (human)): 6.9 ± 0.8 nM; EC50 ([6]; reduction of forskolin stimulated cAMP (luminescence), CHO CRE-luc human mGluR7, read-out: EC50): 7 nM; activity at mGluR8 (in words) ([7]; FIG. 1A): no activity; EC50 mGluR8 ([7]; tested ≤10 μM): inactive; Emax mGluR8 ([7]; tested ≤10 μM): inactive; EC50 ([8]; Mus musculus, 1 min, short incubation (1 minute), FIG. 3A, read-out: EC50 of reduction of glutamate release): 34 nM; enhancement of glutamate release ([8]; longer exposure (10 minutes), FIG. 3B): 92%; reduction of glutamate release ([8]; short incubation (1 minute), FIG. 3A): 30%

From US11465994B2, “MGluR7 agonist compounds for treating mGluR7-regulated diseases, disorders, or conditions” (Takeda Pharmaceutical Company Limited, priority 2016, dated 2022)
